Measured values from US6677450B2, “Topoisomerase inhibitors” (Bristol-Myers Squibb Company, priority 2000, dated 2004).

How the values were obtained:
[1] = molecular target: T1, purified human topoisomerase I (Homo sapiens, UniProt P11387); test: Topoisomerase I activity (in vitro): compound-induced, topoisomerase I-mediated single strand breaks in PM2 DNA; assay type: biochemical; conditions: 30 minutes at 37° C., agarose gel densitometry, read-out: EC50 (median effective concentration for inducing topoisomerase I-mediated single strand breaks in DNA)
T1 construct: purchased Topogen
T1 sequence (P11387 1-765): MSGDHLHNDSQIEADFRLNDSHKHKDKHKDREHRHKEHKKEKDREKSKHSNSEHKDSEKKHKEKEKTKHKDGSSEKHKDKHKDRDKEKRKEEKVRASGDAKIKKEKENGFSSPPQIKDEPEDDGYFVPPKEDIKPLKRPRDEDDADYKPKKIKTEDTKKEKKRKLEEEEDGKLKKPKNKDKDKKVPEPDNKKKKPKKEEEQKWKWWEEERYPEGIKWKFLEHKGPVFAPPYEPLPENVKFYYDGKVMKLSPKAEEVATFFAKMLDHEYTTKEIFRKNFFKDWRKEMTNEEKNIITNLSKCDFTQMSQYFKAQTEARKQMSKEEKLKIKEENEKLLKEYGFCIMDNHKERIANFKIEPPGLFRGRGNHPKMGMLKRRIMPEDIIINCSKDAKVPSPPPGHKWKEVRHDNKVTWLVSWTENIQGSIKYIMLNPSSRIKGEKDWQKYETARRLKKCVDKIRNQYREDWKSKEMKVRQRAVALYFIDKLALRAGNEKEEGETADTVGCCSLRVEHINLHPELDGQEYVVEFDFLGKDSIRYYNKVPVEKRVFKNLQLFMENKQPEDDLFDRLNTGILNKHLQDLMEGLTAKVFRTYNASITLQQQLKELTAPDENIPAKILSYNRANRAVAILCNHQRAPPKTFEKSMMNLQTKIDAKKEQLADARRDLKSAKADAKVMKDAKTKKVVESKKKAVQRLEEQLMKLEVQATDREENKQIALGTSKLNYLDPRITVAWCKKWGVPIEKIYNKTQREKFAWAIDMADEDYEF
Protocol: Topoisomerase I Activity (In Vitro)
Topoisomerase I activity was measured as described below: The procedure for assaying compound-induced, topoisomerase I-mediated single strand breaks in DNA was essentially that described by Hsiang, et al., (J. Biol Chem. 1985, 260, 14873-14878). Samples dissolved in 100% DMSO as either 10 μM or 10 mg/ml solutions, unless otherwise stated, were diluted in Tris-EDTA buffer. Marine bacteriophage PM2 DNA (Boehringer Mannheim) was also diluted in Tris-EDTA buffer to a concentration of 0.02 μg/μl. Different dilutions of the compound being evaluated were mixed with diluted DNA and this mixture was added to 1000 unit (one unit of enzyme activity is defined as the amount capable of relaxing 100 ng of supercoiled DNA in approximately 30 minutes at 37° C.) aliquots of purified human topoisomerase I (Topogen) in 2× reaction buffer to start the reaction. The compound-DNA-enzyme mixture was incubated for 30 minutes at 37° C. before stopping the reaction with warm stop buffer containing sodium dodecyl sulfate and proteinase K (Sigma). These mixtures were allowed to incubate at 37° C. for another 10 minutes, at which time the mixtures were removed from the waterbath and extracted with a 24:1 mixture of chloroform/isoamyl alcohol. Following centrifugation, aliquots of the aqueous phases were placed in wells of a 0.9% agarose (SeaKem) gel in Tris-borate buffer containing 0.5 μg/ml of ethidium bromide and subjected to electrophoresis for 15 hours to separate the different topological isomers and nicked and broken DNAs. After destaining the gel in water, the ethidium bromide stained DNA reaction products were visualized by exposing the gel to UV irradiation. Negatives of the photographs of the irradiated gels were scanned with a densitometer and areas under the peaks were calculated in order to obtain percent single strand DNA break formation for each sample. A median effective concentration (EC50) was obtained for each compound by interpolation between points of the resulting dose-effect curve which defines the potency of the compound for its effect in inducing topoisomerase I-mediated single strand breaks in DNA.
The topoisomerase I activity for certain compounds of the present invention is shown below in Table I.

[2] = system: murine P388 cell line; test: In vitro cell-based cytotoxicity: proliferation inhibition, XTT tetrazolium assay; conditions: Mus musculus; P388 cells, 72 h at 37° C., XTT absorbance at 450 nm; read-out: IC50 (drug concentration required to inhibit cell proliferation to 50% of untreated control cells)
Protocol: In Vitro Cell-Based Cytotoxicity Activity
The proliferation inhibition activity against murine P388 cell line was measured as follows. Evaluation of a soluble tetrazolium/formazan assay for cell growth and drug sensitivity in culture, using human and other tumor cell lines, was done according to the procedure described in Cancer Res. 1988, 48, 4827-4833. Cells were plated at 4000 cells/well in 96 well microtiter plates and 24 h later drugs were added and serially diluted. The cells were incubated at 37° C. for 72 h, at which time a tetrazolium dye, XTT, containing phenazine methosulfate was added. A dehydrogenase enzyme in live cells reduced the XTT to a form that absorbs light at 450 nm, which could be quantitated spectrophotometrically. The greater the absorbance the greater the number of live cells. The results are expressed as an IC50, which is the drug concentration required to inhibit cell proliferation (i.e., absorbance at 450 nm) to 50% of that of untreated control cells.

In the case of `O=C1NC(=O)c2c1c1c3ccc(F)cc3n3c1c1c2c2ccc(F)cc2n1C1OC(C3)C(F)C(O)C1O` [Example 11, 2,10-Difluoro-12,13-[1,6-(4-deoxy-4-fluoro-β-D-glucopyranosyl)]-6,7,12,13-tetrahydro(5H)indolo[2,3-a]pyrrolo[3,4-c]carbazole-5,7-dione], the EC50 [1] is reported as 3.3 µM, the IC50 [2] is reported as 0.021 µM and the melting point is reported as 315 °C (dec.).
